Source: the NIST ThermoML archive (doi:10.1021/je900757k)

Assay: isobaric coefficient of expansion
Conditions: Liquid, DSC

CCCCCCCCCCCCC [tridecane]
isobaric coefficient of expansion
Conditions | 288.15 K | 298.15 K | 308.15 K | 318.15 K | 328.15 K | 338.15 K | 348.15 K
5000 kPa | 0.00088 1/K | 0.000891 1/K | 0.000905 1/K | 0.000919 1/K | 0.000936 1/K | 0.000958 1/K | 0.00098 1/K
10000 kPa | 0.00086 1/K | 0.000868 1/K | 0.00088 1/K | 0.000892 1/K | 0.000903 1/K | 0.000917 1/K | 0.000935 1/K
15000 kPa | 0.00084 1/K | 0.00085 1/K | 0.000858 1/K | 0.000865 1/K | 0.00087 1/K | 0.000882 1/K | 0.000896 1/K
20000 kPa | 0.000827 1/K | 0.000828 1/K | 0.000835 1/K | 0.000838 1/K | 0.000844 1/K | 0.000853 1/K | 0.000863 1/K
25000 kPa | 0.000811 1/K | 0.000812 1/K | 0.000814 1/K | 0.000818 1/K | 0.00082 1/K | 0.000827 1/K | 0.000833 1/K
30000 kPa | 0.000796 1/K | 0.000799 1/K | 0.000796 1/K | 0.000799 1/K | 0.0008 1/K | 0.000801 1/K | 0.000807 1/K
35000 kPa | 0.000777 1/K | 0.000782 1/K | 0.000781 1/K | 0.000781 1/K | 0.000782 1/K | 0.000783 1/K | 0.000784 1/K
40000 kPa | 0.000772 1/K | 0.000771 1/K | 0.000765 1/K | 0.000763 1/K | 0.000761 1/K | 0.000761 1/K | 0.000756 1/K
45000 kPa | 0.000754 1/K | 0.000755 1/K | 0.00075 1/K | 0.000748 1/K | 0.000745 1/K | 0.000741 1/K | 0.000741 1/K
50000 kPa | 0.000744 1/K | 0.000744 1/K | 0.000735 1/K | 0.000734 1/K | 0.000728 1/K | 0.000728 1/K | 0.000723 1/K
55000 kPa | 0.000722 1/K | 0.000725 1/K | 0.000718 1/K | 0.000718 1/K | 0.000714 1/K | 0.000714 1/K | 0.000709 1/K
